Reference: ChEMBL document CHEMBL1144818, “Antifouling activity of a dibrominated cyclopeptide from the marine sponge Geodia barretti” (J Nat Prod, 2008)
The source made the active and inactive calls. The calls are words filed in the database; no cut-off is given here.

Tests used:
[1] = biological target: 5-hydroxytryptamine receptor 4 (Homo sapiens) (UniProt Q13639); assay: Binding affinity to human 5HT4 receptor expressed in HEK293 cells; format: cell-based
Amphibalanus improvisus [2] = assay: Reversal of antifouling activity in Balanus improvisus assessed as inhibition of cyprid larvae settlement at 10 uM after 48 hrs measured after transferring to fresh sea water; format: functional, organism-based
[3] = biological target: 5-hydroxytryptamine receptor 2A (Homo sapiens) (UniProt P28223); assay: Binding affinity to human 5HT2A receptor expressed in HEK293 cells; format: cell-based
Amphibalanus improvisus [4] = assay: Antifouling activity in Balanus improvisus assessed as inhibition of cyprid larvae settlement; format: functional, organism-based
[5] = biological target: T1, 5-hydroxytryptamine receptor 2C (Homo sapiens) (UniProt P28335); assay: Binding affinity to human 5HT2C receptor expressed in HEK293 cells; format: cell-based
T1 sequence (whole entry): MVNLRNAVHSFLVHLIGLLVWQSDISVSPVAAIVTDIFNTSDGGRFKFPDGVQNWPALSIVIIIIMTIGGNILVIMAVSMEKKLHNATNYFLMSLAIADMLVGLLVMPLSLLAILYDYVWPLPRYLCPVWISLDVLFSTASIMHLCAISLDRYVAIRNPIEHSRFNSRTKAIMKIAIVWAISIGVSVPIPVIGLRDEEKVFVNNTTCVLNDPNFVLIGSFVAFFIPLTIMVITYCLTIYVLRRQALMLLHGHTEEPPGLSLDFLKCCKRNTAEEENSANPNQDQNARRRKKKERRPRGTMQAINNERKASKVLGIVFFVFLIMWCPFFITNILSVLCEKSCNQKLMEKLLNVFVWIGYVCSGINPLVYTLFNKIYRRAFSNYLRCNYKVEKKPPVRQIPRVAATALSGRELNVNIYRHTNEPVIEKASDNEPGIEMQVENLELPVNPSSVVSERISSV

[6] = biological target: 5-hydroxytryptamine receptor 4 (Homo sapiens) (UniProt Q13639); assay: Binding affinity to human 5HT4 receptor expressed in HEK293 cells below 10 uM; format: cell-based

Sequence of 5-hydroxytryptamine receptor 4 (Homo sapiens) (Q13639 whole entry): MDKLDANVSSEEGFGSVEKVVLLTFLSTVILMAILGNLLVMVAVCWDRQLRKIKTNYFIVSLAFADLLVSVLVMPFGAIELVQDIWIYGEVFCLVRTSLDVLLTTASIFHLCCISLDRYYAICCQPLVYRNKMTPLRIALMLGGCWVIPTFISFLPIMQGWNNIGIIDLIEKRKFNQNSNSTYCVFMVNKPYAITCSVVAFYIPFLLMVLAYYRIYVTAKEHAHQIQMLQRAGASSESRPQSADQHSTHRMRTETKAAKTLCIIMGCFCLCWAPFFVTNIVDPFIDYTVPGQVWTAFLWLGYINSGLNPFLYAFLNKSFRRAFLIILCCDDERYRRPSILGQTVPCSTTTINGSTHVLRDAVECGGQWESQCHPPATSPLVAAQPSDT
Sequence of 5-hydroxytryptamine receptor 2A (Homo sapiens) (P28223 whole entry): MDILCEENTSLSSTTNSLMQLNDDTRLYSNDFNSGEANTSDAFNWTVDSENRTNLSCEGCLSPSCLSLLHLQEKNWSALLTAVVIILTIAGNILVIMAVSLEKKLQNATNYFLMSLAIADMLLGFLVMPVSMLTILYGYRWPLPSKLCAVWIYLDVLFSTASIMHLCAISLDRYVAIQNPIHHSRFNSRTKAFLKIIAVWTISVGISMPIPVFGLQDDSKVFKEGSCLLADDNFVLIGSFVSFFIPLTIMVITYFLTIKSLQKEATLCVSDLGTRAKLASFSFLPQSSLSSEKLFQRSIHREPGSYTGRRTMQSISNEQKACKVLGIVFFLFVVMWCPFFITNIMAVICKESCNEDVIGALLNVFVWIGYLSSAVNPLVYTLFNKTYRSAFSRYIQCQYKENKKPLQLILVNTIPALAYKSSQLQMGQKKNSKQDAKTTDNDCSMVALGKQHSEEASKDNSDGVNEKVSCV

Activity [1] | Activity [3] | Activity [5] | Activity [6] | SMILES | Activity (Amphibalanus improvisus [2]) | EC50 (Amphibalanus improvisus [4])
inactive | inactive | inactive | – | N=C(N)NCCC[C@@H]1NC(=O)C(C(O)(c2c[nH]c3cc(Br)ccc23)c2c(Br)ccc3c(=O)o[nH]c23)NC1=O (stereo partly specified) | Active | 0.015 µM
– | – | – | Active | N=C(N)NCCC[C@@H]1NC(=O)C(Cc2c[nH]c3cc(Br)ccc23)NC1=O (stereo partly specified) | – | –
